Experimental data reported in PubChem BioAssay (NCI).
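48-hour exposure; five concentrations; linearly interpolated endpoints. GI50: concentration for 50% inhibition of growth. TGI marks complete inhibition of growth.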

Legend:
Assay in all cases: inhibition of tumour cell growth, NCI panel, 48 h
K-562 leukemia = test system: K-562 leukemia
MDA-MB-231 breast = test system: MDA-MB-231 breast
A549 NSCLC = test system: A549 NSCLC
MALME-3M melanoma = test system: MALME-3M melanoma
NCI/ADR-RES ovarian = test system: NCI/ADR-RES ovarian
KM12 colon = test system: KM12 colon
NCI-H522 lung = test system: NCI-H522 lung
BT-549 breast = test system: BT-549 breast

Structure (SMILES)	GI50 (K-562 leukemia) [µM]	TGI (K-562 leukemia) [µM]	GI50 (MDA-MB-231 breast) [µM]	TGI (MDA-MB-231 breast) [µM]	GI50 (A549 NSCLC) [µM]	TGI (A549 NSCLC) [µM]	GI50 (MALME-3M melanoma) [µM]	TGI (MALME-3M melanoma) [µM]	GI50 (NCI/ADR-RES ovarian) [µM]	TGI (NCI/ADR-RES ovarian) [µM]	GI50 (KM12 colon) [µM]	TGI (KM12 colon) [µM]	GI50 (NCI-H522 lung) [µM]	TGI (NCI-H522 lung) [µM]	GI50 (BT-549 breast) [µM]	TGI (BT-549 breast) [µM]
COc1cc(OCc2cccc(-c3ccc(C(O)c4nccs4)cc3)c2C)cc(OC)c1C=O (configuration not stated)	1.22	13.6	2.2	7.32	2.32	11.6	2.7	7.9	2.84	14.7	3.02	11	1.74	6.35	1.77	6.78
N=C(N)C1CN(CCc2c[nH]c3ccccc23)C(=O)NC1=O (configuration not stated)	–	> 100	–	> 100	–	> 100	–	> 100	–	> 100	–	–	–	–	–	> 100
COc1cc(-c2oc(=O)ccc2C#Cc2ccccn2)cc(OC)c1OC	0.646	> 100	3.57	> 72.4	4.15	> 100	14.9	> 100	1.09	–	0.884	> 100	–	–	4.42	> 100
CN1CCN(C2CCN(C(=O)Nc3cc(Oc4ccc(NC(=O)C5(C(=O)Nc6ccc(F)cc6)CC5)c(F)c4)ccn3)CC2)CC1	0.514	> 2.53	0.981	> 7	1.38	> 10	0.703	2.25	> 8.16	> 10	0.292	> 2.52	–	> 2.66	1.02	> 2.71
CC1=C(C(=O)Nc2ccc(F)c(Cl)c2)C(c2ccccc2O)NC(=S)N1 (configuration not stated)	22	> 50	> 50	> 50	19.6	> 50	–	–	> 50	> 50	> 50	> 50	> 50	> 50	19.2	49.4
CC1(C)S[C@@H]2[C@H](NC(=O)C3(N)CCCCC3)C(=O)N2[C@H]1C(=O)O	–	> 100	–	> 100	–	> 100	–	> 100	–	> 100	–	> 100	–	> 100	–	> 100
COC(=O)c1ccc2c(c1)nc(NC(=O)c1ccccc1)n2CCCc1ccccc1	3.26	> 100	6.26	> 100	3.6	> 100	5.73	> 100	4.1	> 100	4.5	> 100	3.58	99.3	3.33	> 100
COc1ccc(C2SC(N)=Nc3c2c(C)nn3C(=O)c2ccncc2)cc1OC (configuration not stated)	–	> 10	–	> 10	–	> 10	–	> 10	–	> 10	–	> 10	–	> 10	–	> 10
COc1cccc(F)c1C(=O)c1cnc(NC2CCN(S(C)(=O)=O)CC2)nc1N	6.55	> 25	2.74	> 22.1	3.15	> 25	4.35	13.7	6.9	> 25	2.02	> 20.7	7.87	> 23.7	5.45	16.8
COC(=O)C1c2cc3c(cc2C(OC2OC(C)C(OC)C(C)(OC)C2OC)CC1(C)O)C(=O)c1c(O)cc2c(c1C3=O)OC1OC2(C)C(O)C([N+](C)(C)[O-])C1O (configuration not stated)	–	–	–	4.74	–	> 75.8	–	1.25	–	> 64.3	–	–	–	0.809	–	9.14
Cn1c(I)c(C#CCO[Si](C)(C)C(C)(C)C)c(=O)[nH]c1=O	2.06	4.36	17.3	33.1	> 100	> 100	1.78	3.85	19.2	38.1	25.9	> 61.2	1.8	3.95	16.4	30.3
COc1cc(Nc2ncccc2C(=O)NCc2cn(Cc3cccc(Oc4ccccc4)c3)nn2)cc(OC)c1	5.05	> 100	5.33	> 100	4.02	> 100	5.81	> 100	3.21	> 100	3.84	> 100	3.31	> 100	7.16	> 100
CC(C)NC(=O)OCc1c(COC(=O)NC(C)C)c(-c2cc[n+](COC(=O)C3CC3)cc2)n2c1CCC2	–	> 100	–	> 100	–	> 100	–	> 100	–	> 100	–	> 100	–	> 100	–	> 100
CC(=O)N=C1N(/C=C2\C(=O)Oc3ccccc3C2=O)C(=O)/C(=C/c2cccc(Cl)c2Cl)N1C	–	63.3	–	86.4	–	> 100	–	> 100	–	62	–	> 100	–	> 100	–	75.3
O=C(Nc1ccc2ncccc2c1)Nc1ccc2ncccc2c1	–	> 100	–	> 100	–	> 100	–	> 100	–	> 100	–	> 100	–	> 100	–	> 100
Nc1ccc([N+](=O)[O-])cc1N=C/C=C/c1ccccc1	5.43	> 100	7.57	> 100	21.9	> 100	25.1	> 100	7.84	> 100	3.87	51.2	4.47	59	12.5	> 100
C#CCOc1cccc(-c2ncc3cc(NC(=O)CCl)ccc3n2)c1	0.561	> 100	–	–	2.11	4.43	1.65	3.29	3.07	> 100	1.61	3.11	1.16	2.51	1.47	3.18
C(=NCCN1CCOCC1)=NC1CCCCC1	–	> 100	–	> 100	–	> 100	–	> 100	–	> 100	–	> 100	–	> 100	–	> 100
